Data published in ChEMBL document CHEMBL1150865, “Ma'iliohydrin, a cytotoxic chamigrene dibromohydrin from a Philippine Laurencia species” (2001).

What was measured:
[1] = Growth inhibition of human NCI60 cells; assay type: functional
NCI/ADR-RES = experiment: Growth inhibition of human NCI/ADR-RES cells; assay type: functional

C=C1C[C@@H](O)[C@@H](Br)C(C)(C)[C@@]12C=C[C@@](O)(C(Br)Br)CC2 [MAILIOHYDRIN]
GI50 [1]: 10 µM
GI50 (NCI/ADR-RES): 0.01 µM
